Laboratory results: US20080020385A1, “Use Of A Genetic Modification In The Human Gnaq Gene For Predicting Risk Of Disease, The Course Of Disease, And Reaction To Treatments” (priority 2004, published 2008)

Tests used:
skin blood circulation = test: Change of skin blood circulation after injection of vasoconstrictors under the skin; format: in vivo; settings: injected under the skin of human individuals, by GC(-909/-908)TT genotype
Protocol: As an example for the general usability of the GNAQ GC(−909/−908)TT polymorphism to predict drug actions, the vasoconstrictors angiotensin II, noradrenaline or endothelin were injected under the skin of human individuals, and the following change of blood circulation was recorded (FIG. 18).

GNAQ promoter = test: SEAP reporter assay of GNAQ promoter construct -798/+89 (GC or TT genotype) in stimulated HEK cells; format: cell-based, human; settings: construct -798/+89, stimulation with 10 nM angiotensin II, p<0.05
Source text: For functional detection of a modified promoter activity in relation to specific genotypes, various fragments of the promoter with the GC or the TT genotype were cloned into the pSEAP vector to quantify the promoter activity after expression of the vector in HEK cells in a so-called reporter assay (FIG. 5). For this assay, constructs are cloned before a gene encoding the secreted alkaline phosphatase (SEAP). If the construct has promoter activity, the SEAP gene will be transcribed more, and the increased secretion of alkaline phosphatase into the cell culture medium can be measured. […] Since the polymorphism is located in this region (−697/−695 relative from the transcription starting point) showing the highest reporter activity, and furthermore a transcription factor binding site is influenced by the nucleic acid exchange, it is now studied if stimulation of HEK cells has an effect on the reporter activity of these constructs. For this, construct −798/+89 was transfected into HEK cells, together with either the GC(−909/−908) or the TT(−909/−908) polymorphism, and the cells were stimulated with serum or angiotensin II (FIG. 6). […] In order to verify if this regulation also occurs in vivo, Gαq expression was analyzed on mRNA level by real time-PCR.

human adipocytes = test: Inhibition of isoprenaline-induced lipolysis (glycerol release) in human adipocyte cultures; format: cell-based; settings: human adipocytes ex vivo, by GC(-909/-908)TT genotype
Source text: The inhibiting effect of insulin on lipolysis was studied in human adipocyte cultures. For this, lipolysis was induced ex vivo in human adipocytes by isoprenaline, and the inhibiting effect of insulin was studied by adding insulin to the cultures. Lipolysis was quantified by glycerol release (Hauner et al., 2002). […] This coincides with the observation of an increased gene expression of Gq in this genotype.

For `CC[C@H](C)[C@H](NC(=O)[C@H](CC(=O)O)NC(=O)[C@H](CC(C)C)NC(=O)[C@H](Cc1c[nH]cn1)NC(=O)[C@@H]1CSSC[C@H](N)C(=O)N[C@@H](CO)C(=O)N[C@H]2CSSC[C@H](NC(=O)[C@H](CCC(=O)O)NC(=O)[C@H](CCCCN)NC(=O)[C@H](CC(=O)O)NC(=O)[C@H](CCSC)NC(=O)[C@H](CC(C)C)NC(=O)[C@H](CO)NC(=O)[C@H](CO)NC2=O)C(=O)N[C@@H](C(C)C)C(=O)N[C@@H](Cc2ccc(O)cc2)C(=O)N[C@@H](Cc2ccccc2)C(=O)N1)C(=O)N[C@H](C(=O)N[C@@H](Cc1c[nH]c2ccccc12)C(=O)O)[C@@H](C)CC` [endothelin], the “reduction of skin blood circulation” value (skin blood circulation) was “reduction of skin blood circulation is highest for the GC/GC genotype”.
For `NC[C@H](O)c1ccc(O)c(O)c1` [noradrenaline], the “reduction of skin blood circulation” value (skin blood circulation) was “reduction of skin blood circulation is highest for the GC/GC genotype”.
“angiotensin II (DRVYIHPF; Angiotensin-2; UniProt P01019 25-32, looked up) [hormone, vasoconstrictor]” was tested, and the “promoter activity (secreted alkaline phosphatase), GC genotype compared to TT genotype” value (GNAQ promoter) was “two to four times increased promoter activity compared to the TT genotype” and the “reduction of skin blood circulation” value (skin blood circulation) was “reduction of skin blood circulation is highest for the GC/GC genotype”.
In the case of insulin, the “inhibiting effect on isoprenaline-induced lipolysis (glycerol release)” value (human adipocytes) is reported as “inhibiting insulin effect was strongest with adipocytes from individuals with GCGC genotype”.
